According to paper PMC8896928, “Preparation, Characterization, and Preliminary Imaging Study of [^188Re]Re-Ibandronate as a Novel Theranostic Radiopharmaceutical for Bone Metastasis” (Contrast Media & Molecular Imaging, 2022):
Values joined by “and” are separate entries in the source; they are usually repeats but may differ in a detail not shown here. Equal values may be shown once. Read-outs that look alike come from different tables or passages of the source.

What was measured:
[1] = Biodistribution in normal mice; type: in vivo, Kunming mice
Experimental: Twenty Kunming mice (originated from Swiss albino mice and introduced into Kunming, China.) were randomly divided into five groups (equal number of males and females). Each group was injected with 3.7 MBq [^188Re]Re-IBA. […] The blood and important tissue and organ samples were collected to measure the radioactivity count by γ counter. Following the time attenuation correction, the percentage injection dose rate per gram of tissue (%ID/g) was calculated at each time point. The result is expressed as mean ± standard deviation ( χ¯ ± s). The in vivo distribution of [^188Re]ReO4^− was studied using the aforementioned method.

[2] = 37°C
Experimental: The RCP of [^188Re]Re-IBA was determined by PC. Acetone and 0.9% NaCl were used as the eluents. A TLC scanner was used to measure the distribution of radioactivity on the PC strips. The RCP of [^188Re]Re-IBA was calculated from the peak area measurements as follows: […]
Freshly prepared [^188Re]Re-IBA was incubated in 0.9% NaCl and fresh human serum at 37°C. The RCP of the tubes was determined by PC at 1 h, 3 h, 6 h, 12 h, and 24 h. The experiment was repeated thrice. The results are expressed as mean ± standard deviation ( χ¯ ± s).

CCCCCN(C)CCC1(O)P(=O)(O)[O][188Re]2([OH])([OH])([O]P1(=O)O)[O]P(=O)(O)C(O)(CCN(C)CCCCC)P(=O)(O)[O]2 (stereo not drawn) [[^188Re]Re-IBA]
%ID/g Blood ([1]; 1 h): 1.869 ± 0.665 %ID/g | %ID/g Brain ([1]; 1 h): 0.072 ± 0.023 %ID/g | %ID/g Femur ([1]; 1 h): 5.989 ± 1.680 %ID/g | %ID/g Gonad ([1]; 1 h): 0.878 ± 0.426 %ID/g | %ID/g Heart ([1]; 1 h): 0.488 ± 0.179 %ID/g | %ID/g Kidney ([1]; 1 h): 5.894 ± 1.648 %ID/g | %ID/g Liver ([1]; 1 h): 1.100 ± 0.165 %ID/g | %ID/g Lung ([1]; 1 h): 1.297 ± 0.661 %ID/g | %ID/g Muscle ([1]; 1 h): 0.550 ± 0.251 %ID/g | %ID/g Small intestine ([1]; 1 h): 0.898 ± 0.494 %ID/g | %ID/g Spleen ([1]; 1 h): 0.952 ± 0.336 %ID/g | %ID/g Stomach ([1]; 1 h): 2.928 ± 0.851 %ID/g | %ID/g Thyroid gland ([1]; 1 h): 0.594 ± 0.201 %ID/g | Femur/heart radioactivity ratio ([1]; 1 h): 12.278 | Femur/liver radioactivity ratio ([1]; 1 h): 5.443 | Femur/muscle radioactivity ratio ([1]; 1 h): 10.880 | %ID/g Blood ([1]; 3 h): 0.785 ± 0.220 %ID/g | %ID/g Brain ([1]; 3 h): 0.056 ± 0.010 %ID/g | %ID/g Femur ([1]; 3 h): 7.105 ± 1.901 %ID/g | %ID/g Gonad ([1]; 3 h): 0.611 ± 0.095 %ID/g | %ID/g Heart ([1]; 3 h): 0.293 ± 0.118 %ID/g | %ID/g Kidney ([1]; 3 h): 3.140 ± 0.799 %ID/g | %ID/g Liver ([1]; 3 h): 0.794 ± 0.133 %ID/g | %ID/g Lung ([1]; 3 h): 0.784 ± 0.196 %ID/g | %ID/g Muscle ([1]; 3 h): 0.344 ± 0.143 %ID/g | %ID/g Small intestine ([1]; 3 h): 0.597 ± 0.214 %ID/g | %ID/g Spleen ([1]; 3 h): 0.475 ± 0.135 %ID/g | %ID/g Stomach ([1]; 3 h): 2.801 ± 0.560 %ID/g | %ID/g Thyroid gland ([1]; 3 h): 0.449 ± 0.171 %ID/g | Femur/heart radioactivity ratio ([1]; 3 h): 24.214 | Femur/liver radioactivity ratio ([1]; 3 h): 8.949 | Femur/muscle radioactivity ratio ([1]; 3 h): 20.664 | %ID/g Blood ([1]; 6 h): 0.496 ± 0.207 %ID/g | %ID/g Brain ([1]; 6 h): 0.045 ± 0.011 %ID/g | %ID/g Femur ([1]; 6 h): 7.724 ± 2.292 %ID/g | %ID/g Gonad ([1]; 6 h): 0.303 ± 0.141 %ID/g | %ID/g Heart ([1]; 6 h): 0.199 ± 0.049 %ID/g | %ID/g Kidney ([1]; 6 h): 2.763 ± 0.731 %ID/g | %ID/g Liver ([1]; 6 h): 0.526 ± 0.087 %ID/g | %ID/g Lung ([1]; 6 h): 0.506 ± 0.104 %ID/g | %ID/g Muscle ([1]; 6 h): 0.220 ± 0.124 %ID/g | %ID/g Small intestine ([1]; 6 h): 0.608 ± 0.192 %ID/g | %ID/g Spleen ([1]; 6 h): 0.296 ± 0.108 %ID/g | %ID/g Stomach ([1]; 6 h): 1.741 ± 0.368 %ID/g | %ID/g Thyroid gland ([1]; 6 h): 0.399 ± 0.082 %ID/g | Femur/heart radioactivity ratio ([1]; 6 h): 38.835 | Femur/liver radioactivity ratio ([1]; 6 h): 14.694 | Femur/muscle radioactivity ratio ([1]; 6 h): 35.182 | %ID/g Blood ([1]; 24 h): 0.058 ± 0.013 %ID/g | %ID/g Brain ([1]; 24 h): 0.024 ± 0.013 %ID/g | %ID/g Femur ([1]; 24 h): 6.177 ± 2.163 %ID/g | %ID/g Gonad ([1]; 24 h): 0.059 ± 0.032 %ID/g | %ID/g Heart ([1]; 24 h): 0.045 ± 0.012 %ID/g | %ID/g Kidney ([1]; 24 h): 0.913 ± 0.173 %ID/g | %ID/g Liver ([1]; 24 h): 0.122 ± 0.042 %ID/g | %ID/g Lung ([1]; 24 h): 0.138 ± 0.037 %ID/g | %ID/g Muscle ([1]; 24 h): 0.051 ± 0.020 %ID/g | %ID/g Small intestine ([1]; 24 h): 0.078 ± 0.013 %ID/g | %ID/g Spleen ([1]; 24 h): 0.189 ± 0.052 %ID/g | %ID/g Stomach ([1]; 24 h): 0.098 ± 0.036 %ID/g | %ID/g Thyroid gland ([1]; 24 h): 0.115 ± 0.036 %ID/g | Femur/heart radioactivity ratio ([1]; 24 h): 137.083 | Femur/liver radioactivity ratio ([1]; 24 h): 50.645 | Femur/muscle radioactivity ratio ([1]; 24 h): 121.910 | %ID/g Blood ([1]; 48 h): 0.031 ± 0.009 %ID/g | %ID/g Brain ([1]; 48 h): 0.009 ± 0.002 %ID/g | %ID/g Femur ([1]; 48 h): 5.239 ± 2.029 %ID/g | %ID/g Gonad ([1]; 48 h): 0.029 ± 0.009 %ID/g | %ID/g Heart ([1]; 48 h): 0.019 ± 0.010 %ID/g | %ID/g Kidney ([1]; 48 h): 0.399 ± 0.153 %ID/g | %ID/g Liver ([1]; 48 h): 0.038 ± 0.020 %ID/g | %ID/g Lung ([1]; 48 h): 0.040 ± 0.020 %ID/g | %ID/g Muscle ([1]; 48 h): 0.016 ± 0.005 %ID/g | %ID/g Small intestine ([1]; 48 h): 0.033 ± 0.010 %ID/g | %ID/g Spleen ([1]; 48 h): 0.046 ± 0.009 %ID/g | %ID/g Stomach ([1]; 48 h): 0.047 ± 0.019 %ID/g | %ID/g Thyroid gland ([1]; 48 h): 0.070 ± 0.019 %ID/g | Femur/heart radioactivity ratio ([1]; 48 h): 270.814 | Femur/liver radioactivity ratio ([1]; 48 h): 136.914 | Femur/muscle radioactivity ratio ([1]; 48 h): 325.483 | RCP, in vitro stability ([2]; 0.9% NaCl, 1 h): 98.14 ± 0.2% | RCP, in vitro stability ([2]; 0.9% NaCl, 3 h): 97.82 ± 0.6% | RCP, in vitro stability ([2]; 0.9% NaCl, 6 h): 96.99 ± 1.3% | RCP, in vitro stability ([2]; 0.9% NaCl, 12 h): 95.33 ± 1.1% | RCP, in vitro stability ([2]; 0.9% NaCl, 24 h): 91.44% and 91.44 ± 0.8% | RCP, in vitro stability ([2]; human serum, 1 h): 99.01 ± 0.5% | RCP, in vitro stability ([2]; human serum, 3 h): 98.67 ± 0.9% | RCP, in vitro stability ([2]; human serum, 6 h): 98.15 ± 0.8% | RCP, in vitro stability ([2]; human serum, 12 h): 96.90 ± 1.4% | RCP, in vitro stability ([2]; human serum, 24 h): 93.06% and 93.06 ± 1.6%
